What all share (format): cell-based
The subject of test [1] is MCF-7 human breast adenocarcinoma cells. As to the kind of experiment: MTT antiproliferative assay, MCF-7. As to conditions: for IC50: Homo sapiens, MCF7, 72 h, read-out: IC50 (µM) ± S.D. MCF-7 Breast Cancer; for Selectivity index (IC50 normal fibroblast/IC50 MCF-7): fibroblasts/breast cancer, second value of the SI cell. As for the experimental part:
(§1) The proliferation inhibitory activities of the carboxamide derivatives 4-16 were tested in vitro using the MTT assay against the human cancer MCF-7, K-562, and HCT-116 cell lines in addition to normal human cells (dermal fibroblasts) to evaluate their putative selective cytotoxic activities. […] The human colorectal carcinoma (HCT-116), human breast adenocarcinoma (MCF-7), human chronic myelogenous leukemia (K-562), and human dermal fibroblast normal cell lines were purchased from were purchased from the American Type Culture Collection (ATCC) (Manassas, VA, USA) and stored in liquid nitrogen. Cells were passaged twice weekly upon reaching 70–80% confluency, and only low passage numbers (≤ 10) were used in all experiments. Mycoplasma contamination was monitored using the Lonza MycoAlert™ mycoplasma detection kit. Cells were sub-cultured and maintained with appropriate media: RPMI-1640 medium (Buffalo, New York, USA) was used to grow MCF-7, K-562 and HCT-116 cancer cells, while fibroblast cells were cultured in Iscove’s Modified Dulbecco’s medium (IMDM) (EuroClone S.p.A., Pero, MI, Italy). Both media were supplemented with 10% (v/v) heat-inactivated fetal bovine serum (FBS) (Gibco, CA, USA), 2 mM of L-Glutamine, 100 units/mL of Penicillin, and 100 μg/mL of Streptomycin (EuroClone, Italy). Cells were maintained at 37 °C in a humidified incubator with 5% CO2 (NuAire, Plymouth, MN, USA). The MTT colorimetric assay utilized in this study was previously described and adapted from Mosmann. The MTT regent [3-(4,5-dimethylthiazol-2-yl)-2,5-diphenyl tetrazolium bromide] was employed to evaluate the antiproliferative activities of carboxamides 4-16 against MCF-7, K-562, HCT-116, and dermal normal fibroblast cell lines. Cells (6–8 × 10^3 per well, 180 µL) were seeded into 96-well plates (Corning, New York, USA) and allowed to adhere overnight at 37 °C in a humidified 5% CO₂ incubator. Fresh top stock solutions of the test compounds (10 mM in DMSO) were then freshly prepared, followed by serial dilutions in the appropriate culture media before being added to the seeded cells. […] Initial screening for potential antiproliferative activity was carried out using two concentration points (10 µM and 50 µM) in triplicate over a 72-hour incubation period. […] Following 72 h of exposure, MTT solution (2 mg/mL in PBS, 50 µL per well) was added, and plates were incubated for an additional 4 h. The supernatant in each well was then removed, and the resulting formazan crystals were solubilized by adding DMSO (150 µL per well). Absorbance, measured as the optical density (OD), was recorded at 570 nm using a microplate reader (Thermo Fisher Scientific, Waltham, MA, USA). The detected signal intensity corresponds to metabolic activity, which directly correlates with the viable cell number. All experiments were performed in triplicate, and the results are presented as the mean ± standard deviation (SD). The IC50 values for antiproliferative activity were calculated using nonlinear regression analysis in GraphPad Prism software (GraphPad Prism version 9.0.0 for Windows, GraphPad Software, San Diego, California USA). Additionally, a two-way ANOVA test was conducted to analyze significant variations in IC50 values, with a significant level set at α = 0.05.
Background: Formazan colour is commonly taken as a measure of viable cells.

The subject of test [2] is K-562 human chronic myelogenous leukemia cells. Description: MTT antiproliferative assay, K-562. The note with it: for IC50: Homo sapiens, K562, 72 h, MTT, 72 h treatment, mean ± SD, read-out: IC50 (µM) ± S.D. K-562 Leukemia; for Selectivity index (IC50 normal fibroblast/IC50 K-562): fibroblasts/leukemia, third value of the SI cell. As for the experimental part:
as §1

Test [3] has as its system human dermal fibroblast normal cell line. As to the kind of experiment: MTT assay, normal dermal fibroblasts. As to conditions: 72 h treatment, read-out: IC50 (µM) ± S.D. Dermal Fibroblast Normal. As for the experimental part: as §1
In test [4] the test system is HCT-116 human colorectal carcinoma cells. Description: MTT antiproliferative assay, HCT-116. The note with it: for IC50: Homo sapiens, HCT-116, MTT, 72 h treatment, mean ± SD, read-out: IC50 (µM) ± S.D. HCT-116 Colon Cancer; for Selectivity index (IC50 normal fibroblast/IC50 HCT-116): fibroblasts/colon cancer, first value of the SI cell; for Selectivity for HCT-116 over MCF-7: ratio of MCF-7 to HCT-116 IC50. As for the experimental part: as §1

In general, IC50 refers to the concentration at which inhibition is half-maximal.

Regarding `O=C(Nc1ccc(Cl)cc1)c1cc2ccccc2[nH]1` [Compound 4, N-(4-Chlorophenyl)-1H-indole-2-carboxamide], the IC50 in test [1] (MTT, 72 h treatment, mean ± SD) was 10.6 ± 0.53 µM; in test [2], 0.61 ± 0.03 µM; in test [3], > 100 µM; in test [4] it was 3.94 ± 0.03 µM. In addition, the “Selectivity index (IC50 normal fibroblast/IC50 MCF-7)” value in test [1] is > 9.4. Moreover, the “Selectivity index (IC50 normal fibroblast/IC50 K-562)” value in test [2] is reported as > 164. In addition, the “Selectivity index (IC50 normal fibroblast/IC50 HCT-116)” value in test [4] was > 25.4.

Turning to `O=C(Nc1ccc(F)cc1)c1cc2ccccc2[nH]1` [Compound 6, N-(4-Florophenyl)-1H-indole-2-carboxamide], the IC50 in test [1] (MTT, 72 h treatment, mean ± SD) is 80.8 ± 4.04 µM; in test [2] it was 84.6 ± 4.23 µM; in test [3] it was > 100 µM; in test [4], 25.4 ± 0.38 µM. For the same compound, the “Selectivity index (IC50 normal fibroblast/IC50 MCF-7)” value in test [1] is recorded as > 1.2. For the same compound, the “Selectivity index (IC50 normal fibroblast/IC50 K-562)” value in test [2] was > 1.2. For the same compound, the “Selectivity index (IC50 normal fibroblast/IC50 HCT-116)” value in test [4] is recorded as > 3.9.

Consider `O=C(Nc1ccc([N+](=O)[O-])cc1)c1cc2ccccc2[nH]1` [Compound 8, N-(4-Nitrophenyl)-1H-indole-2-carboxamide], for which the IC50 is > 100 µM in test [1] (MTT, 72 h treatment, mean ± SD); > 100 µM in test [2]; > 100 µM in test [3]; 32 ± 0.83 µM in test [4]. Also, the “IC50 (µM) ± S.D. MCF-7 Breast Cancer” value in test [1] (MTT, 72 h treatment, mean ± SD) is recorded as “exceptional resistance”. Moreover, the “Selectivity index (IC50 normal fibroblast/IC50 HCT-116)” value in test [4] is reported as > 3.1.

With `O=C(Nc1ccccn1)c1cc2ccccc2[nH]1` [Compound 10, N-(Pyridin-2-yl)-1H-indole-2-carboxamide], the IC50 in test [1] (MTT, 72 h treatment, mean ± SD) was 70.3 ± 3.52 µM; in test [2] it was > 100 µM; in test [3], > 100 µM; in test [4], 1.01 ± 0.04 µM. Also, the “Selectivity index (IC50 normal fibroblast/IC50 MCF-7)” value in test [1] is > 1.4. The “Selectivity index (IC50 normal fibroblast/IC50 HCT-116)” value in test [4] is > 99.4. Besides, the “Selectivity for HCT-116 over MCF-7” value in test [4] was 69.6 fold.

As to `O=C(Nc1cccc2c1C(=O)c1ccccc1C2=O)c1cc2ccccc2[nH]1` [Compound 12, N-(9,10-Dihydro-9,10-dioxoanthracen-1-yl)-1H-indole-2-carboxamide], the “Selectivity index (IC50 normal fibroblast/IC50 MCF-7)” value in test [1] is given as > 11.0. The IC50 was 0.33 ± 0.02 µM in test [2], > 100 µM in test [3] and 3.98 ± 0.06 µM in test [4]. Further, in test [2], the “Selectivity index (IC50 normal fibroblast/IC50 K-562)” value was > 303. For the same compound, the “Selectivity index (IC50 normal fibroblast/IC50 HCT-116)” value in test [4] is > 25.1.

Regarding `O=C(Nc1ccc2c(c1)C(=O)c1ccccc1C2=O)c1cc2ccccc2[nH]1` [Compound 14, N-(9,10-Dihydro-9,10-dioxoanthracen-2-yl)-1H-indole-2-carboxamide], the IC50 in test [1] (MTT, 72 h treatment, mean ± SD) was 7.16 ± 0.36 µM; in test [3], > 100 µM; in test [4], 2.64 ± 0.07 µM. Moreover, in test [1], the “Selectivity index (IC50 normal fibroblast/IC50 MCF-7)” value is > 14.0. Further, in test [2], the “Selectivity index (IC50 normal fibroblast/IC50 K-562)” value was > 164. For the same compound, the “Selectivity index (IC50 normal fibroblast/IC50 HCT-116)” value in test [4] is reported as > 37.9.

Regarding `O=C(Nc1cccc2c1C(=O)c1ccccc1C2=O)c1ccco1` [Compound 16, N-(9,10-Dihydro-9,10-dioxoanthracen-1-yl)-2-furamide], the IC50 in test [1] (MTT, 72 h treatment, mean ± SD) was 33.1 ± 1.66 µM; in test [2], > 100 µM; in test [3] it was > 100 µM; in test [4] it was 3.11 ± 0.049 µM. Also, in test [1], the “Selectivity index (IC50 normal fibroblast/IC50 MCF-7)” value was > 3.0. Further, in test [4], the “Selectivity index (IC50 normal fibroblast/IC50 HCT-116)” value is given as > 32.2. Besides, the “Selectivity for HCT-116 over MCF-7” value in test [4] is listed as 10.6 fold.
